Legend:
Type in all cases: cell-based
[1] = system: secreted proteins of astrocytes; assay: ELISA of secreted proteins in culture media of LPS-stimulated astrocytes
Experimental: Next, the impact of SRI-42127 on induction of inflammatory cytokine mRNAs as depicted in FIG. 15, Panel B was assessed. A significant 3-4-fold suppression of mRNA for IL-1β, IL-6, CXCL1, and CCL2 was observed. […] All chemokines were likewise suppressed, including KC, CCL2, CCL3, CCL4, CXCL10, from 2.5 to 8.1-fold.

[2] = system: Primary human neuronal cells; assay: cytotoxicity in primary human neurons (morphology, cell number, metabolism, cleaved caspase-3)
Source text: PrestoBlue cell viability reagent (ThermoFisher Scientific; Waltham, MA) was used for cell viability assays. The inhibitory dose-response data were normalized to the control (treatment with vehicle); the inhibitory dose-response curves, which were fitted by using Boltzmann equation, and the corresponding IC50s were generated by using OriginPro software (OriginLab Corporation, CA).
At the end of experiments, neurons and astrocytes were rinsed briefly with PBS and fixed by using 4% paraformaldehyde, pH 7.4 for 13 minutes at room temperature. Triton X-100 (0.3%) in PBST buffer (i.e., PBS with 0.1% Tween 20) was used for cell permeabilization for 30 minutes at room temperature. Cells were rinsed with PBST buffer 3 times for 10 minutes after fixation. Blocking buffer (3% BSA, 22.52 mg/ml glycine in PBST) was used to block unspecific antibody binding for 30 minutes at room temperature. Primary cleaved caspase 3 antibody (Cell Signaling Technology; Danvers, MA) at 1:200 dilution in PBST buffer with 1% BSA was utilized overnight at 4° C. for cleaved caspase 3 staining. The next day, cells were rinsed four times for 10 minutes with PBST buffer and then were incubated with secondary antibody (Alexa Fluor 594, goat anti-rabbit IgG, Invitrogen (Carlsbad, CA), 1:2000/5000 dilution) in PBST buffer with 1% BSA for 1 hour at room temperature in the dark. Next, cells were rinsed with PBST buffer 4 times for 10 minutes in the dark. Cell nucleus were stained with DAPI (4′,6-diamidino-2-phenylindole). Cell images were obtained with EVOS Fl (Life Technologies; Eugene, OR) imaging system.
The cellular metabolism declined by about 44% after treatment with SRI-42127, 25 uM for 48 hours as shown by FIG. 5E. […] Therefore, compound SRI-42127 inhibited glioma cell growth and had low neuronal and astrocyte cytotoxicity at concentrations below 15 uM.

LN229 glioma cell line = assay: cell cycle analysis (propidium iodide, flow cytometry); details: LN229, 10 uM for 18 hours
Experimental: (§1) Cell cycle distribution was evaluated using a standard staining procedure with propidium iodide (PI) (Sigma-Aldrich; St. Louis, MO) followed by flow cytometry. For cell cycle analysis, cells were plated at low density and synchronized by starvation in serum-free media for 48 hours, then treated with drug or vehicle (control) for 18 hours in normal media with 10% serum. Next, cells were collected, washed, and resuspended in ice-cold phosphate buffered saline (PBS). Cells were fixed under gentle vortexing by dropwise addition of a 10×volume of ice-cold 80% ethanol (−20° C.) on ice. Subsequently, samples were stored at −20° C. for at least 18 hours until data acquisition. Before cell cycle analysis, cells were washed in PBS and treated with RNase A (200 μg/mL, in PBS) and PI (20 μg/mL) for 45 minutes at 23° C. Acquisition of at least 10000 events per sample was performed in UAB Flow Cytometry Facility. Data were analyzed by FlowJo v10 software (Becton, Dickinson and Company; Franklin Lakes, NJ).
(§2) HuR is one of the key regulators of cell cycle progression in cancer cells, particularly high-grade glioma; therefore, the arrest of cell cycle progression by the newly identified compounds supports HuR-targeted inhibition. FIG. 5B illustrates representative histograms of cell cycle progression in the established U251, LN229, and the PDGx XD456 glioma cell lines in the control (treatment with vehicles) and after treatment with SRI-42127. The bar graph represents the average numbers of cells in each phase of the cell cycle after treatment with the SRI-42127 normalized to the corresponding control values (vehicle treatment). There was a significant accumulation of cells in the G1 phase and a reduction of cells in the S phase after treatment with SRI-42127, 10 uM for 18 hours. […] The average reductions of cells in the S phase were 65±4% (n=3), 60±3% (n=3), and 70±3% (n=3) in U251, LN229, and XD456 cell lines, respectively, after treatment with SRI-42127 compared to the control.

[3] = system: PDGx XD456 glioma cell line; assay: as above; details: XD456, 10 uM for 18 hours
Experimental: as §1, §2

U251 glioma cell line = assay: as above; details: U251, 10 uM for 18 hours
Experimental: as §1, §2

**Q.** How did the “suppression of secreted chemokines KC, CCL2, CCL3, CCL4, CXCL10” value [1] turn out when `CN(c1ccc2ncc(-c3ccc4cn[nH]c4c3)n2n1)C1CCOCC1` [Compound 19] was run?
**A.** Its value is 2.5 to 8.1 fold.

**Q.** And the “suppression of secreted IL-6” value ([1]; 1.0 μM)?
**A.** The value was 8.8 fold.

**Q.** What about the “suppression of secreted TNF-α” value ([1]; 1.0 μM) of the same molecule?
**A.** Its value is 5.7 fold.

**Q.** What about the “decline of cellular metabolism” value ([2]; 25 uM for 48 hours) of the same molecule?
**A.** The value was “about 44%”.

**Q.** And the “cleaved caspase-3 immunostaining” value ([2]; neurons, up to 15 uM, 48 hours)?
**A.** The value was “no significant alterations”.

**Q.** What about the “morphological changes of neurons” value ([2]; up to 15 uM for 48 hours) of the same molecule?
**A.** The value was “no morphological changes”.

**Q.** And the “neuron cell numbers and cell sprouting” value ([2]; up to 15 uM for 48 hours, listed as SRI-42127)?
**A.** Its value is “remained unchanged”.

**Q.** What about the “increase of cells in the G1 phase compared to the control” value (from here on “increase of cells in the G1 phase”) (LN229 glioma cell line) of the same molecule?
**A.** The value was 56±28%.

**Q.** What about the “reduction of cells in the S phase compared to the control” value (from here on “reduction of cells in the S phase”) (LN229 glioma cell line) of the same molecule?
**A.** The value was 60±3%.

**Q.** What about the “increase of cells in the G1 phase” value [3] of the same molecule?
**A.** Its value is 210±40%.

**Q.** What about the “reduction of cells in the S phase” value [3] of the same molecule?
**A.** Its value is 70±3%.

**Q.** And the “increase of cells in the G1 phase” value (U251 glioma cell line)?
**A.** The value was 97±33%.

**Q.** What about the “reduction of cells in the S phase” value (U251 glioma cell line) of the same molecule?
**A.** The value was 65±4%.

Reference: patent US12435091B2, “RNA-binding protein multimerization inhibitors and methods of use thereof” (THE UAB RESEARCH FOUNDATION, priority 2020, dated 2025)
